Measured values as given in patent US5587463A, “Texaphyrin macrocycles and metal complexes thereof” (Board of Regents, The University of Texas System, priority 1994, dated 1996).
Read-outs that look alike come from different tables or passages of the source.

Key:
[1] = Optical and photophysical properties of metallotexaphyrins (laser flash photolysis, fluorescence, singlet oxygen luminescence); format: physicochemical; design: tt (triplet lifetime): unit not given here; details: CH3 OH; for Absorption gmax (Soret-type band): first value (Soret); for Absorption gmax (Q-type band): second value (Q-type); for D^1 O2 (singlet oxygen quantum yield) / Df (fluorescence quantum yield): ±10%
From the text: Finally, several complexes containing paramagnetic metal ions (e.g. Mn^II, Sm^III, and Eu^III, structures 5c -7c) were investigated.
Comparison of the initial intensity with that obtained using tetrakis (4-hydroxyphenyl)porphyrin (THPP) as photosensitizer^3b under identical conditions allowed calculation of the quantum yields for production of singlet oxygen (^.phi. 1.cndot.2).

[2] = 1:1 methanol/water
[3] = Axial base binding of benzimidazole, 1H NMR spectral titration; details: for conversion to six coordinate form (4bA): ca. 5×10^-3 M
From the text: (§1) For a rigorously five coordinate starting cadmium complex, such as that represented schematically by structure 3A, where neither the counter anion nor adventitious ligands serves to occupy an apical coordination site, base binding can be considered to occur in accord with equations (1) and (2) shown below. Under conditions where K1 […]K2, these processes can be considered to occur sequentially, giving first a monoligated, presumably pentagonal pyramidal six coordinate species (such as 4bA), followed by a coordinatively saturated bisligated pentagonal bipyramidal product akin to 5aA. Where, however, K2 >>K1this stepwise conceptual approach is invalid. Under these conditions, it becomes easier to analyze the base binding in terms of direct formation of the bisligated material as shown in equation (3).
(§2) L+B LB K1 =[LB]/[L][B] (1)
(§3) LB+B LB2 K2 =[LB2 ]/[LB][B] (2)
(§4) L+2B LB2 K1 K2 =[LB2 ]/[L][B]^2 (3)
(§5) The ^1 H NMR titration of 3A .cndot.NO3 with BzIm or pyr-D5 was done. Rigorously purified complex 3A .cndot.NO3 was dried at 80° C. under reduced pressure (1 mmHg) for 1 day. Starting samples for titration were then prepared by dissolving this five coordinate complex (3.32 mg, 0.005 mmol) in 0.7 to 0.75 ml of CDCl3 and transferring quantitatively to an NMR tube. To such samples were then added increasing aliquots of either BzIm or pyr-D5 (as solutions of known concentration in CDCl3) and recording the chemical shift of the "meso" protons at 27^Q C. Control experiments were also carried out by adding known quantities of CF3 CO2 H, D2 O, and NH4 NO3 to similar stock solutions of 3.cndot.NO3.
Determination of Binding Constants. […] The chemical shift data obtained for the "meso" signals as a function of added BzIm were thus analyzed as such at both very low and very high conversion: Standard Scatchard (single reciprocal) plots^38 were constructed by plotting (δ-δo)/[BzIm] vs (δ-δo) according to equation 4 (which corresponds to eq. 5.13 of ref. 38), obtaining K as the absolute value of the slope and the term (δ.infin. -δo)K as the intercept.
(δ-δo)/[BzIm]=-K(δ-δo)+(δ.infi
Here δ is the observed chemical shift, δo is the initial chemical shift of the pure five or six coordinate starting complex (3A .cndot.NO3 or 4bA --NO3), δ.infin. the chemical shift calculated for the final mono- or bisligated complexes 4bA .cndot.NO3 or 5aA .cndot.NO3, K the equilibrium constant in question, and [BzIm] the concentration of free, uncomplexed benzimidazole. […] This was done in a straightforward manner according to the expressions given in equations 5 and 6, where [lig]o represents the concentration of the starting five coordinate ligand 3A .cndot.NO3.
(δ-δo)/δ.infin. -δo) at low
[BzIm].congruent.[BzIm]o -[lig]o at high [BzIm]o (6)
Using these corrected values for [BzIm], straight line Scatchard plots were obtained with R[…]0.99 and 0.98 respectively for the low and high [BzIm]o regimes giving values of K1 and K2 of 1.80×10^4 M^-1 and 12.9 M^-1 respectively.

[4] = Hydrolysis in aqueous acid; format: physicochemical
From the text: (§6) Attempts to demetallate complex 3A .cndot.NO3 were made. In an effort to obtain the free sp^2 bridged ligand 2A, the above complex in chloroform was stirred for several hours in the presence of sodium sulfide and independently with sodium thiosulfate. […] In the case of sodium sulfide, this critical conclusion was further supported by FAB MS: Other than the starting cationic complex 3A, no evidence was obtained for any moderate to high molecular weight volatile products in the mass spectrum. […] The rate of this process, however, is strongly pH dependent, the half-life being, for instance, on the order of several hours in the presence of ca. 0.1N HCl.

[5] = Stability to demetallation (sulfide, thiosulfate); format: physicochemical; details: for demetallation by sulfide: aqueous Na2 S / excess sulfide anion
From the text: The above K1 and K2 (or K1 K2) values are predicated on the assumption that the cadmium complexes under discussion are stable with regards to demetallation and that the equilibria of equations 1 and 2 (or 3) pertain under the conditions of base binding. The first of these concerns is readily apparent: If demetallation occurs, then obviously one is not studying base binding! […] The second concern is particularly important within the context of quantitative work: If, for instance, the starting complex 3.cndot.NO3 is not rigorously five coordinate, then K1 (and perhaps K2 as well) would represent an axial ligand displacement reaction rather than a pure addition process as implied above. Control experiments indicate that the assumption of initial five coordination is reasonable: Independent titrations of 3A .cndot.NO3 with NH4 NO3 and H2 O indicate that only modest and monotonic changes in the chemical shift of the "meso" signals take place over the course of adding ≥50 equivalents of these potentially adventitious ligands.^40 This means that either "complete" binding occurs at 1:1 stoichiometry (essentially ruled out in the case of H2 O on the basis of analytical data), or that these species are poorly coordinating in CHCl3 so that five coordination pertains about cadmium; the latter interpretation appearing more likely.
as §6

[6] = Axial base binding of pyridine, 1H NMR spectral titration
From the text: as §1, §2, §3, §4, §5
The changes in "meso" proton chemical shift as a function of added [pyr] shown in FIG. 15 indicate a clear […] of two distinct binding regimes. Moreover as expected, attempts to fit the data as a simple monoligation process (to give 6CN material) according to eq. […] This was done using the convenient iterative procedure outlined by Connors.^38 Here the equations of interest, corresponding to eqs. 4.31 and 4.32 of Connors,^38 as adopted for NMR analyses, are:
[pyr]{Δ12 /(δ-δo)-1}-K1 (7)
(δ-δo) {1+K1 [pyr]+K1 K2 [pyr]^2
where δ is the observed chemical shift, δo is the initial chemical shift of the pure five coordinate starting complex 3.cndot.NO3, All is the total chemical shift difference corresponding to the formation of the pure putative monoligated six coordinate species, Δ12 is the total chemical shift corresponding to the formation of the bisligated cationic species 5a from the initial five coordinate material, and [pyr] is the free pyridine concentration. A precise expression for [pyr] is given by equation 9,^38 where [pyr]o is the concentration total added pyridine, and [lig]o represents the concentration of the starting five coordinate ligand 3A .cndot.NO3.
[pyr]o =[pyr]+[lig]o (K1 [pyr]+2K1 K2
[pyr]^2)/(1+K1 [pyr]+K1 K2 [pyr]^2)(9)
Initial iterative solutions of eqs. 7 (plotting 1/[pyr]-K1 Δ11 /(δ-δo) vs. [pyr]{Δ12 /δ-δo)-1}, giving K1 K2 and -K1 as the slope and intercept respectively) and 8 (plotting (δ-δo) {1+K1 [pyr]+K1 K2 [pyr]^2 }/[pyr] vs. [pyr], giving K1 K2 Δ12 and K1 Δ11 as the slope and intercept respectively) were therefore made using this greatly simplifying assumption. They converged quickly to give initial, uncorrected values of K1 =1.5M^-1 and K1 K2 =308M^-2. […]

[7] = design: tt (triplet lifetime): unit not given here; details: benzene, see reference 4, cited from earlier work

## CCC1=C(C)c2cnc3cc(C)c(C)cc3ncc3nc(cc4[n-]c(cc1n2)c(CC)c4CC)C(CC)=C3C.[Eu+3].[OH-].[OH-] [7C (OH)2]
[1]
  Absorption gmax (Soret-type band): 451 nm
  Absorption gmax (Q-type band): 762 nm
  D^1 O2 (singlet oxygen quantum yield): < 0.05
  Df (fluorescence quantum yield): < 0.001

## CCC1=C(C)c2cnc3ccccc3ncc3nc(cc4[n-]c(cc1n2)c(CC)c4CC)C(CC)=C3C.[Mn+2].[OH-] [5C OH]
[1]
  Absorption gmax (Soret-type band): 420 nm
  Absorption gmax (Q-type band): 760 nm
  D^1 O2 (singlet oxygen quantum yield): < 0.05
  Df (fluorescence quantum yield): < 0.001

## CCC1=C(C)c2cnc3ccccc3ncc3nc(cc4[n-]c(cc1n2)c(CC)c4CC)C(CC)=C3C.[Y+3] [Y^3+ complex of texaphyrin]
[2]
  half-lives for decomplexation and/or ligand decomposition: exceed 3 weeks

## CCC1=C(C)c2cnc3ccc(Cl)cc3ncc3nc(cc4[n-]c(cc1n2)c(CC)c4CC)C(CC)=C3C.O=[N+]([O-])[O-].[Cd+2] [4C NO3]
[1]
  Emission gmax: 788 nm
  S (= phi 1O2 / phi t): 0.76
  Absorption gmax (Soret-type band): 421 nm
  Absorption gmax (Q-type band): 760 nm
  D^1 O2 (singlet oxygen quantum yield): 0.74
  Df (fluorescence quantum yield): 0.009
[1]; deoxygenated
  tt (triplet lifetime): 36
[1]; ±5%
  Dt (triplet quantum yield): 0.97

## CCC1=C(C)C2=[N+]3C1=Cc1c(CC)c(CC)c4[n]1[Cd-3]315[N+](=C2)c2ccccc2[N+]1=CC1=[N+]5C(=C4)C(CC)=C1C.O=[N+]([O-])[O-] [3A .cndot.NO3]
[3]; 0.2 molar equivalents of BzIm
  conversion to six coordinate form (4bA): roughly 20%
[3]; 1.0 molar equivalent of BzIm
  conversion to six coordinate form (4bA): 90%
[3]; CDCl3, iterative approach
  K1 K2 (benzimidazole): 1.9×10^5 M^-2
[3]; CDCl3, iterative approach, read-out: K1 (benzimidazole) (converted)
  Kd: 50 µM
[3]; CDCl3, very high conversion, read-out: K2 (benzimidazole) (converted)
  Kd: 76900 µM
[3]; CDCl3, very low conversion, read-out: K1 (benzimidazole) (converted)
  Kd: 55.6 µM
[4]
  hydrolysis in aqueous acid: appears to undergo hydrolysis (at the imine residues) and hence demetallation
[4]; ca. 0.1N HCl
  half-life for hydrolysis/demetallation: several hours
[5]
  demetallation by sulfide: little or no demetallation occurs
[5]; chloroform, several hours
  changes in optical properties on treatment with sodium sulfide or sodium thiosulfate: No significant changes in optical properties were observed
[6]; 3 equivalents of pyridine
  conversion to pentagonal bipyramidal product (5aA): ca. 5%
[6]; 10 equivalents of pyridine
  conversion to pentagonal bipyramidal product (5aA): roughly 35%
[6]; CDCl3, final values, estimated error ≤10%
  K1 K2 (pyridine): 315 M^-2
[6]; CDCl3, final values, estimated error ≤10%, listed as 3A.cndot.NO3
  K1 K2 (pyridine): 315±30 M^-2
[6]; initial, uncorrected
  K1 K2 (pyridine): 308 M^-2

## CCCCCC[Si](CCCCCC)(CCCCCC)O[Si]1(O[Si](CCCCCC)(CCCCCC)CCCCCC)n2c3c4cc5ccccc5cc4c2N=C2N=C(N=c4c5cc6ccccc6cc5c(n41)=NC1=NC(=N3)c3cc4ccccc4cc31)c1cc3ccccc3cc12 [SiNC, bis(trin-hexylsiloxy)(2,3-naphthalocyaninato) silicon]
[7]
  Absorption gmax (first value): 310 nm
  Absorption gmax (second value): 776 nm
  Emission gmax: 780 nm
  S (= phi 1O2 / phi t): 0.90
  tt (triplet lifetime): 331
[7]; ±5%
  Dt (triplet quantum yield): 0.39
[7]; ±10%
  D^1 O2 (singlet oxygen quantum yield): 0.35

## CCC1=C(C)c2cnc3ccccc3ncc3nc(cc4[n-]c(cc1n2)c(CC)c4CC)C(CC)=C3C.[Cd+2].c1ccncc1.c1ccncc1 [complex 4]
[4]
  hydrolysis in aqueous acid: leads to hydrolysis of the macrocyle
[5]
  demetallation by sulfide: no demetallation takes place
[5]; neutral conditions / base binding controls
  stability relative to cadmium porphyrins: more stable than cadmium porphyrins

## C1=Cc2nc1c(-c1ccccc1)c1ccc([nH]1)c(-c1ccccc1)c1nc(c(-c3ccccc3)c3ccc([nH]3)c2-c2ccccc2)C=C1.[Cd].c1ccncc1 [CdTPP(pyr), reference compound]
[5]
  demetallation by sulfide: leads to cation loss and precipitation of CdS

## CCC1=C(C)c2cnc3ccccc3ncc3nc(cc4[n-]c(cc1n2)c(CC)c4CC)C(CC)=C3C.[Cd+2].c1ccc2[nH]cnc2c1 [4bA]
[3]; 10 molar equivalents of BzIm
  conversion to bisligated seven coordinate form (5bA): 35%

## CCC1=C(C)c2cnc3cc(C)c(C)cc3ncc3nc(cc4[n-]c(cc1n2)c(CC)c4CC)C(CC)=C3C.[OH-].[OH-].[Sm+3] [6C (OH)2]
[1]
  Absorption gmax (Soret-type band): 450 nm
  Absorption gmax (Q-type band): 763 nm
  D^1 O2 (singlet oxygen quantum yield): < 0.05
  Df (fluorescence quantum yield): < 0.001
